Values of other authors, collected in patent publication US20110015368A1, “CD4-RECEPTOR-DERIVED PEPTIDES AND METHOD FOR THE PREPARATION THEREOF” (priority 2006, published 2011).

Tested on: HIV
Details: Esté et al. 1997

Question: With chondroitin sulphate as the substance, how does the “Inhibiting the infection of cells by HIV” value read?
Answer: not

Question: Which “Inhibiting the infection of cells by HIV” value does the source give for dextran sulphate here?
Answer: capable of inhibiting the infection of cells by HIV

Question: Which “Inhibiting the infection of cells by HIV” value does the source give for heparin here?
Answer: capable of inhibiting the infection of cells by HIV
